Experimental data: US20110294772A1, “USE OF CYCLOSQUARAMIDE COMPOUNDS AS ANTI-TUMOUR AGENTS” (priority 2008, published 2011)
Several values for one entry are separate records, joined by “and”; a condition that tells them apart may be missing. Identical values can stand only once.

How the values were obtained:
LOX-IMVI (Melanoma) = experiment: NCI60 panel IC50; type: cell-based, human
Experimental: (§1) On the other hand, the values of IC50 were determined in the panel of NCl60 cell lines for compound 10.
(§2) A total of 2 independent experiments were carried out with assays in triplicate for the compound and cell line. All those assays where an IC50 value was not reached in the highest concentration of 1E-05 M are represented by “>1E-05”. In these cases, the standard deviation cannot be calculated and for that reason it is calculated as “-”.

786-O (Renal) = experiment: NCI60 panel IC50; type: cell-based, human
Experimental: as §1, §2

HT-29 (Colon) = experiment: NCI60 panel IC50; type: cell-based, human
Experimental: as §1, §2

NCI-H522 (Lung) = experiment: NCI60 panel IC50; type: cell-based, human; conditions: lung NCl-H522
Experimental: as §1, §2

SK-MEL-28 (Melanoma) = experiment: NCI60 panel IC50; type: cell-based, human
Experimental: as §1, §2

OVCAR-5 (Ovarian) = experiment: NCI60 panel IC50; type: cell-based, human
Experimental: as §1, §2

HCT-15 (Colon) = experiment: NCI60 panel IC50; type: cell-based, human
Experimental: as §1, §2

OVCAR-8 (Ovarian) = experiment: NCI60 panel IC50; type: cell-based, human
Experimental: as §1, §2

OVCAR-4 (Ovarian) = experiment: NCI60 panel IC50; type: cell-based, human
Experimental: as §1, §2

PKC-beta1 = PKC-beta1 (Homo sapiens, UniProt P05771); experiment: in vitro kinase assay; type: biochemical
Sequence of PKC-beta1 (P05771 whole entry): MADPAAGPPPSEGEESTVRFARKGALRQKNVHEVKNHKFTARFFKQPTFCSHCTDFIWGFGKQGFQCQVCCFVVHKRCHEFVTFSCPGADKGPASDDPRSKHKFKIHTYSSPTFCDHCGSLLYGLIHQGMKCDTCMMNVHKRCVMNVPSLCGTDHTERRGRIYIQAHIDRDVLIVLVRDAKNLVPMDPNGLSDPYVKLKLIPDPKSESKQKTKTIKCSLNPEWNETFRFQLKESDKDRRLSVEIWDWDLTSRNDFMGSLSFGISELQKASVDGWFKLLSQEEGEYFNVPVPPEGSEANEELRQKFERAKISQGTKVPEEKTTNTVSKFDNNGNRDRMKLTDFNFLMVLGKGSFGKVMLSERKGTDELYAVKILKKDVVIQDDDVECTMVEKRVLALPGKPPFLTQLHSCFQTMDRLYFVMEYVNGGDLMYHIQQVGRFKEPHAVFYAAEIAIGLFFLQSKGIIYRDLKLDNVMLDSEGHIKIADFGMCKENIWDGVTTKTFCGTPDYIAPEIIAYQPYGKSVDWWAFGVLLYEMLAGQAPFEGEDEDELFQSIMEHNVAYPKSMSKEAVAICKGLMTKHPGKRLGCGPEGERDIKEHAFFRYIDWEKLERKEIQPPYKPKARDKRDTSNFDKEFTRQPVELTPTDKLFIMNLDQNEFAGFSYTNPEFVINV
Experimental: (§3) Specifically, against a panel of 210 kinases representative of the human kinome, the compounds tested inhibited by […] the activity of 25 of them in in Vitro assays (Table 1).
(§4) The IC50 was determined for the most sensitive kinases to compound 10, obtaining values for said parameter, largely in the micromolar range. For this purpose, the 25 kinases inhibited more than 80% by the compound in in vitro assays were selected.

CDK5/p25NCK = CDK5/p25NCK (Homo sapiens, UniProt Q00535); experiment: in vitro kinase assay; type: biochemical
Sequence of CDK5/p25NCK (Q00535 whole entry): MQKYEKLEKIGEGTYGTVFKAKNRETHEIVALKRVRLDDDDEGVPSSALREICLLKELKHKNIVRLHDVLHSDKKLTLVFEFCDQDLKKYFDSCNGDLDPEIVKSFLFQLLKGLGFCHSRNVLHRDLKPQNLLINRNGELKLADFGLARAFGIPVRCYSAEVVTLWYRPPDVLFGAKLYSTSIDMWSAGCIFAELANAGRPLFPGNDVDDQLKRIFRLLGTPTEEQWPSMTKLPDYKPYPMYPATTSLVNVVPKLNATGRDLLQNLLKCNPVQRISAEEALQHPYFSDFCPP
Sequence of CDK5/p25NCK (Q15078 99-307 partner limits assumed): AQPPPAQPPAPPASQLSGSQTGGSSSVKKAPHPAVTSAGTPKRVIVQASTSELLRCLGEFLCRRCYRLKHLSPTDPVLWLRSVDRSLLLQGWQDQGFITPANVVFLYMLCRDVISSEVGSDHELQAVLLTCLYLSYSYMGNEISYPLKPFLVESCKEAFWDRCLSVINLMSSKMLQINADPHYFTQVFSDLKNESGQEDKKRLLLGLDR
Experimental: as §3, §4

CDK9/CycT = CDK9/CycT (Homo sapiens, UniProt P50750); experiment: in vitro kinase assay; type: biochemical
Sequence of CDK9/CycT (P50750 whole entry): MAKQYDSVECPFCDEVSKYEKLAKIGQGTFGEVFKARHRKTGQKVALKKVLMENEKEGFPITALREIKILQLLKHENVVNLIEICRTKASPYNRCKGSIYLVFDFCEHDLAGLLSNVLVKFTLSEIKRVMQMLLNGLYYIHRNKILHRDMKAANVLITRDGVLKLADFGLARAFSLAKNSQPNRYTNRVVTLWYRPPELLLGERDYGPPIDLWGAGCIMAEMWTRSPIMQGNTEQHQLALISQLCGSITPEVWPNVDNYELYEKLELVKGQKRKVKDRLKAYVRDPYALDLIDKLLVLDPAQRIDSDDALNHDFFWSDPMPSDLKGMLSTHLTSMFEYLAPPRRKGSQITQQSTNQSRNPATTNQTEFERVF
Sequence of CDK9/CycT (O60563 whole entry partner): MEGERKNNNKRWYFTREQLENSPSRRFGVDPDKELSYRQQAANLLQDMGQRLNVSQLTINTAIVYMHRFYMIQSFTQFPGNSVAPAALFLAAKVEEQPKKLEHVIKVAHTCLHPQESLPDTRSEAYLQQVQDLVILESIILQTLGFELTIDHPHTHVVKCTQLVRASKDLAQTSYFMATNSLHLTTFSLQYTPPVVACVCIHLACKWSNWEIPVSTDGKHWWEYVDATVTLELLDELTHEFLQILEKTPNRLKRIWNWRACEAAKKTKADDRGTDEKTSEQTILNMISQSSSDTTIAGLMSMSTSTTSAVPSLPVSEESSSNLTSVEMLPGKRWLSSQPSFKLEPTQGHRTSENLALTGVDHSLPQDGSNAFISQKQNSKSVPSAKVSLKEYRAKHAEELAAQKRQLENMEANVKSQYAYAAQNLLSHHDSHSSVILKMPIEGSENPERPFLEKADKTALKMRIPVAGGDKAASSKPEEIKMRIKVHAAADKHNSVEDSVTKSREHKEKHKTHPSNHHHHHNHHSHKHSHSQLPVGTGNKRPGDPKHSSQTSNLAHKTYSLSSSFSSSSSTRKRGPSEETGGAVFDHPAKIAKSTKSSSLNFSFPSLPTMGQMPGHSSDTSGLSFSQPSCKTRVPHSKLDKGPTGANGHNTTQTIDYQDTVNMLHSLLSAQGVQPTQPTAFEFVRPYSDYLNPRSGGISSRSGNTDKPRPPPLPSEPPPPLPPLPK
Experimental: as §3, §4

MUSK = MUSK (Homo sapiens, UniProt O15146); experiment: in vitro kinase assay; type: biochemical
Experimental: as §3, §4

CSK = CSK (Homo sapiens, UniProt P41240); experiment: in vitro kinase assay; type: biochemical
Sequence of CSK (P41240 whole entry): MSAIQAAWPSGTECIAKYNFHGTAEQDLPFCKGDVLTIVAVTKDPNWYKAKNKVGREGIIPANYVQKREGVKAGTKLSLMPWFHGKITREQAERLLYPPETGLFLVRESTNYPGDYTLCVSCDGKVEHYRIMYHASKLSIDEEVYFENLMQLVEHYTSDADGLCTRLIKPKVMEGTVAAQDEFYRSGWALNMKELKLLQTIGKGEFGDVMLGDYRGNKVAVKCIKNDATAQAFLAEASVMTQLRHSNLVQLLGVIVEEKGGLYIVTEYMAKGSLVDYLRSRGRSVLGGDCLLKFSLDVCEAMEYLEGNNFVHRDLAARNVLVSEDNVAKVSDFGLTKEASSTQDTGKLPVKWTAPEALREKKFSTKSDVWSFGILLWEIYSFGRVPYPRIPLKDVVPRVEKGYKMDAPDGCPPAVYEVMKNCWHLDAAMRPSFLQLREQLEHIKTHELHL
Experimental: as §3, §4

CHK1 = CHK1 (Homo sapiens, UniProt O14757); experiment: in vitro kinase assay; type: biochemical
Experimental: as §3, §4

PAK7 = PAK7 (Homo sapiens, UniProt Q9P286); experiment: in vitro kinase assay; type: biochemical
Experimental: as §3, §4

ABL1 = ABL1 (Homo sapiens, UniProt P00519); experiment: in vitro kinase assay; type: biochemical
Experimental: as §3, §4

FGF-R2 = FGF-R2 (Homo sapiens, UniProt P21802); experiment: in vitro kinase assay; type: biochemical
Experimental: as §3, §4

TGFB-R1 = TGFB-R1 (Homo sapiens, UniProt P36897); experiment: in vitro kinase assay; type: biochemical
Experimental: as §3, §4

ACK1 = ACK1 (Homo sapiens, UniProt Q07912); experiment: in vitro kinase assay; type: biochemical
Experimental: as §3, §4

PAK4 = PAK4 (Homo sapiens, UniProt O96013); experiment: in vitro kinase assay; type: biochemical
Experimental: as §3, §4

VRK1 = VRK1 (Homo sapiens, UniProt Q99986); experiment: in vitro kinase assay; type: biochemical
Experimental: as §3, §4

NLK = NLK (Homo sapiens, UniProt Q9UBE8); experiment: in vitro kinase assay; type: biochemical
Experimental: as §3, §4

PKC-gamma = PKC-gamma (Homo sapiens, UniProt P05129); experiment: in vitro kinase assay; type: biochemical
Experimental: as §3, §4

TRK-C = TRK-C (Homo sapiens, UniProt Q16288); experiment: in vitro kinase assay; type: biochemical
Sequence of TRK-C (Q16288 32-839): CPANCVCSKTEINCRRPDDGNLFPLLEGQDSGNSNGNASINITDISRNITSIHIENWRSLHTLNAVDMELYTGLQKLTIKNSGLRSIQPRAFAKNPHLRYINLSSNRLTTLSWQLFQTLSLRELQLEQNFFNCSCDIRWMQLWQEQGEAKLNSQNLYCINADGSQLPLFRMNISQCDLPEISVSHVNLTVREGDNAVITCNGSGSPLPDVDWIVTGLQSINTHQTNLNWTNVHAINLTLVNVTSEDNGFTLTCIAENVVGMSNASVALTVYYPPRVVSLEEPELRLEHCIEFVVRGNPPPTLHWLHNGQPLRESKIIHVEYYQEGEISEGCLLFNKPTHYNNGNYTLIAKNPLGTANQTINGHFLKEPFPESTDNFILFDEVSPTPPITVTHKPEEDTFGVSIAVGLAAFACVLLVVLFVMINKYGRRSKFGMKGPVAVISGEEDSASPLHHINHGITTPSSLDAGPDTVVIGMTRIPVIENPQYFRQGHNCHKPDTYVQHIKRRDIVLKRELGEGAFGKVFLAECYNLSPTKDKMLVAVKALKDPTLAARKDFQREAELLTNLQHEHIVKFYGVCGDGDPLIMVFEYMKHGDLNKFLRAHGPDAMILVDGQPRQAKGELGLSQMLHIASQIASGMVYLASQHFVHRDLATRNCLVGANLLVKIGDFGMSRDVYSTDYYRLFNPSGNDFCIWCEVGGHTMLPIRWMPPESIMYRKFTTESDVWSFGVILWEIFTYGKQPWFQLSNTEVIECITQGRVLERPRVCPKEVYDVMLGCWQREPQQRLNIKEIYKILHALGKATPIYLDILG
Experimental: as §3, §4

PLK1 = PLK1 (Homo sapiens, UniProt P53350); experiment: in vitro kinase assay; type: biochemical
Experimental: as §3, §4

FGF-R1 VM = FGF-R1 VM (Homo sapiens, UniProt P11362, V561M); experiment: in vitro kinase assay; type: biochemical
Experimental: as §3, §4

S6K = S6K (Homo sapiens, UniProt P23443); experiment: in vitro kinase assay; type: biochemical
Experimental: as §3, §4

CDK7/CycH/Mat1 = CDK7/CycH/Mat1 (Homo sapiens, UniProt P50613); experiment: in vitro kinase assay; type: biochemical
Experimental: as §3, §4

CDK4/CycD3 = CDK4/CycD3 (Homo sapiens, UniProt P11802); experiment: in vitro kinase assay; type: biochemical
Sequence of CDK4/CycD3 (P11802 whole entry): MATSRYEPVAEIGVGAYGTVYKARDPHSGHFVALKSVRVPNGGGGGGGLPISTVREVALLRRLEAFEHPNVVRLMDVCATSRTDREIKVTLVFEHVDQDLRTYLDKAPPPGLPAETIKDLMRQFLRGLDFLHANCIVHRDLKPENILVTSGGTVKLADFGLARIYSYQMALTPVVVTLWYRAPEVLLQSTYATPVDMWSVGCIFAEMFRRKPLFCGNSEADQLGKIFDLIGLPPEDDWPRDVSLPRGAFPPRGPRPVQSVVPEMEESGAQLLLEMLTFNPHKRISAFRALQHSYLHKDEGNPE
Sequence of CDK4/CycD3 (P30281 whole entry partner): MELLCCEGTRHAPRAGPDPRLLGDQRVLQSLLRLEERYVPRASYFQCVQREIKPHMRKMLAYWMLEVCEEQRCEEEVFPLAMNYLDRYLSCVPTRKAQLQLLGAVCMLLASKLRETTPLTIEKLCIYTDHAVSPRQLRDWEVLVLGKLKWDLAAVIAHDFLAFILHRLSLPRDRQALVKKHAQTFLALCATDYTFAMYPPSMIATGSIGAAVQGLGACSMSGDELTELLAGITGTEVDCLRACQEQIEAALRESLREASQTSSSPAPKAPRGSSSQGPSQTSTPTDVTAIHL
Experimental: as §3, §4

MET = MET (Homo sapiens, UniProt P08581); experiment: in vitro kinase assay; type: biochemical
Experimental: as §3, §4

PKC-alpha = PKC-alpha (Homo sapiens, UniProt P17252); experiment: in vitro kinase assay; type: biochemical
Experimental: as §3, §4

CN1CCCNc2c(c(=O)c2=O)NCCCN(C)CCCNc2c(c(=O)c2=O)NCCCN(C)CCCNc2c(c(=O)c2=O)NCCCN(C)CCCNc2c(c(=O)c2=O)NCCCN(C)CCCNc2c(c(=O)c2=O)NCCC1 [Compound 10]
IC50 (LOX-IMVI (Melanoma); Homo sapiens, LOX-IMVI (Melanoma), NCI60 panel, highest concentration 1E-05 M): > 10 µM | sensitivity of the line to the tested compound (LOX-IMVI (Melanoma); melanoma LOX-IMVI): resistant | IC50 (786-O (Renal); Homo sapiens, 786-0, 786-O (Renal), NCI60 panel, highest concentration 1E-05 M): > 10 µM | sensitivity of the line to the tested compound (786-O (Renal); renal 786-O): resistant | IC50 (HT-29 (Colon); Homo sapiens, HT-29 (Colon), NCI60 panel, highest concentration 1E-05 M): > 10 µM | sensitivity of the line to the tested compound (HT-29 (Colon); colon HT-29): resistant | sensitivity of the line to the tested compound (NCI-H522 (Lung)): resistant | IC50 (SK-MEL-28 (Melanoma); Homo sapiens, SK-MEL-28 (Melanoma), NCI60 panel, highest concentration 1E-05 M): > 10 µM | sensitivity of the line to the tested compound (SK-MEL-28 (Melanoma); melanoma SK-MEL-28): resistant | IC50 (OVCAR-5 (Ovarian); Homo sapiens, OVCAR-5 (Ovarian), NCI60 panel, highest concentration 1E-05 M): > 10 µM | sensitivity of the line to the tested compound (OVCAR-5 (Ovarian); ovarian OVCAR-5): resistant | IC50 (HCT-15 (Colon); Homo sapiens, HCT-15 (Colon), NCI60 panel, highest concentration 1E-05 M): > 10 µM | sensitivity of the line to the tested compound (HCT-15 (Colon); colon HCTI5): resistant | IC50 (OVCAR-8 (Ovarian); Homo sapiens, OVCAR-8 (Ovarian), NCI60 panel, highest concentration 1E-05 M): > 10 µM | sensitivity of the line to the tested compound (OVCAR-8 (Ovarian); ovarian OVCAR-8): resistant | IC50 (OVCAR-4 (Ovarian); Homo sapiens, OVCAR-4 (Ovarian), NCI60 panel, highest concentration 1E-05 M): > 10 µM | sensitivity of the line to the tested compound (OVCAR-4 (Ovarian); ovarian OVCAR-4): resistant | IC50 (PKC-beta1): 7.6 µM | inhibition of kinase cdk5 (CDK5/p25NCK; in vitro kinase assay): 80% | IC50 (CDK5/p25NCK; kinase CDK5/p25NCK, in vitro): 9.2 µM | inhibition of kinase cdk9 (CDK9/CycT; in vitro kinase assay): 87% | IC50 (CDK9/CycT; kinase CDK9/CycT, in vitro): 3.7 µM | IC50 (MUSK): 1.5 µM | IC50 (CSK): 13 µM and 7.2 µM | IC50 (CHK1): 1.4 µM | IC50 (PAK7): 4.9 µM | IC50 (ABL1): 5.4 µM | IC50 (FGF-R2): 5.4 µM | IC50 (TGFB-R1): 3.3 µM | inhibition of kinase Ack1 (ACK1): 85% | IC50 (PAK4): 4.3 µM | IC50 (VRK1): 2.4 µM | IC50 (NLK): 4.3 µM | IC50 (PKC-gamma): 5.8 µM and 4.9 µM | IC50 (TRK-C): 7.2 µM and 6.6 µM | IC50 (PLK1): 26 µM | IC50 (FGF-R1 VM): 2.6 µM | IC50 (S6K): 4.4 µM | IC50 (CDK7/CycH/Mat1): 28 µM | IC50 (CDK4/CycD3): 5.4 µM and 5.3 µM | IC50 (MET): 3.7 µM | IC50 (PKC-alpha): 2.3 µM
